Data as given in patent US5059615A, “Antimycotically active cyclopropyl-substituted azolylmethylcarbinols” (Bayer Aktiengesellschaft, priority 1988, dated 1991).
≈ marks a conversion by molar mass, not a printed value.

Columns and labels:
Torulopsis glabrata = assay: Antimycotic in vitro activity, serial dilution test (MIC); format: cell-based; conditions: Nakaseomyces glabratus, meat extract-dextrose broth, 28-37° C., 24 to 96 hours, read-out: MIC values in μg/ml of nutrient medium
Protocol: (§1) The in vitro tests were carried out in a serial dilution test using inocula of microorganisms of on average 5×10^4 to 10^5 microorganisms/ml of substrate. The nutrient medium used was b) for yeasts meat extract-dextrose broth. The incubation temperature was 28° C. to 37° C., and the incubation time was 24 to 96 hours with yeasts and 96 hours with dermatophytes and Hyphomycetes.

Candida albicans = assay: as above; format: cell-based; conditions: for MIC: Candida albicans, meat extract-dextrose broth, 28-37° C., 24 to 96 hours, read-out: MIC values in μg/ml of nutrient medium; for activity compared with the known compounds (A) and (B): serial dilution test, in particular against Candida albicans
Protocol: as §1

[1] = tested on: Trichophyton mentagrophytes; assay: as above; format: cell-based; conditions: Trichophyton mentagr., Sabouraud's test medium, 28-37° C., 96 hours, read-out: MIC values in μg/ml of nutrient medium
Protocol: as §1, with “a)” for “b)”, “dermatophytes and Hyphomycetes Sabouraud's test medium” for “yeasts meat extract-dextrose broth.”

Aspergillus fumigatus = assay: as above; format: cell-based; conditions: Sabouraud's test medium, 28-37° C., 96 hours, read-out: MIC values in μg/ml of nutrient medium
Protocol: as §1, with “a)” for “b)”, “dermatophytes and Hyphomycetes Sabouraud's test medium” for “yeasts meat extract-dextrose broth.”

Candida cells = assay: Antimycotic in vivo activity (oral) in mouse candidosis; set-up: species or system Mice of the SPF-CF type; conditions: for Action / surviving on the 6th day p.i.: 10-100 mg/kg one hour before and seven hours after infection; for Action: survival on the 6th day p.i.; for surviving on the 6th day p.i.: untreated about 5%; for action (in words) / action compared with the known compounds (C) and (D): mouse candidosis
Protocol: Mice of the SPF-CF type were infected intravenously with 1-2×10^6exponentially growing Candida cells which were suspended in physiological saline solution. One hour before and seven hours after the infection, the animals were treated orally in each case with 10-100 mg/kg of body weight of the preparation. Untreated animals died 3 to 6 days post infection. The survival rate on the 6th day post infection in untreated control animals was about 5%.

[2] = tested on: Trichophyton mentagrophytes; assay: Antimycotic in vivo activity (local) in the experimental guinea-pig trichophytosis model; set-up: species or system guinea-pigs of the Pirbright white strain; conditions: 2.5% strength solution
Protocol: White guinea-pigs of the Pirbright white strain were infected on the shaven, non-scarified back using a microconidia and macroconidia suspension of Trichophyton mentagrophytes. The infected animals were treated locally from. The 3rd day 1x daily p.i. using a 2.5% strength solution of the preparation according to the invention (in dimethyl sulphoxide:glycerol=1:4). In untreated animals, the typical picture of dermatophytosis with reddening, scaling and hair loss up to total integumental defect of the infection site developed in the course of 12 days p.i.

Microsporum canis = assay: Antimycotic in vitro activity, serial dilution test (MIC); format: cell-based; conditions: Sabouraud's test medium, 28-37° C., 96 hours, read-out: MIC values in μg/ml of nutrient medium
Protocol: as §1, with “a)” for “b)”, “dermatophytes and Hyphomycetes Sabouraud's test medium” for “yeasts meat extract-dextrose broth.”

MIC (Torulopsis glabrata) | MIC (Candida albicans) | MIC [1] | MIC (Aspergillus fumigatus) | MIC (Microsporum canis) | Compound | Action (Candida cells) | surviving on the 6th day p.i. (Candida cells) | action (in words) (Candida cells) | action compared with the known compounds (C) and (D) (Candida cells) | action (in words) [2] | activity compared with the known compounds (A) and (B) (Candida albicans)
> 64 µg/mL | > 64 µg/mL | 32 µg/mL (≈ 105 µM) | > 64 µg/mL | – | OC(Cn1cncn1)(Cn1cncn1)c1cccc(Cl)c1 [A, reference compound] | – | – | – | – | – | –
> 64 µg/mL | 64 µg/mL (≈ 237 µM) | 64 µg/mL (≈ 237 µM) | > 64 µg/mL | – | OC(Cn1cncn1)(Cn1cncn1)c1ccccc1 [B, reference compound] | – | – | – | – | – | –
– | – | – | – | – | N#CC1(C(O)(Cn2cncn2)c2ccc(F)cc2)CC1 (centres unmarked) [I-2, 1-(1-Cyanocyclopropyl)-1-(4-fluorophenyl)-2-(1,2,4-triazol-1-yl)ethanol] | +++++ (very good action = 90% surviving on the 6th day p.i.) | > 80% | good to very good action | better than the compounds (C) and (D) | good action | –
8 µg/mL (≈ 27.7 µM) | 2 µg/mL (≈ 6.93 µM) | 2 µg/mL (≈ 6.93 µM) | 4 µg/mL (≈ 13.9 µM) | 4 µg/mL (≈ 13.9 µM) | N#CC1(C(O)(Cn2cncn2)c2ccc(Cl)cc2)CC1 (centres unmarked) [I-3, 1-(1-Cyanocyclopropyl)-1-(4-chlorophenyl)-2-(1,2,4-triazol-1-yl)ethanol] | +++++ (very good action = 90% surviving on the 6th day p.i.) | > 80% | good to very good action | better than the compounds (C) and (D) | good action | better activity
– | – | – | – | – | N#CC1(C(O)(Cn2cncn2)c2ccc(F)cc2F)CC1 (centres unmarked) [I-4, 1-(1-Cyanocyclopropyl)-1-(2,4-difluorophenyl)-2-(1,2,4-triazol-1-yl)ethanol] | +++++ (very good action = 90% surviving on the 6th day p.i.) | > 80% | good to very good action | better than the compounds (C) and (D) | – | –
8 µg/mL (≈ 29.5 µM) | 8 µg/mL (≈ 29.5 µM) | < 1 µg/mL | 4 µg/mL (≈ 14.7 µM) | 4 µg/mL (≈ 14.7 µM) | N#CC1(C(O)(Cn2ccnc2)c2ccc(F)cc2)CC1 (centres unmarked) [I-5, 1-(1-cyanocyclopropyl)-1-(4-fluorophenyl)-2-(imidazol-1-yl)ethanol] | – | – | – | – | – | better activity
– | – | – | – | – | NC(=O)C1(C(O)(Cn2cncn2)c2ccc(F)cc2)CC1 (centres unmarked) [I-7, 1-(1-Carboxamidocyclopropyl)-1-(4-fluorophenyl)-2-(1,2,4-triazol-1-yl)ethanol] | +++++ (very good action = 90% surviving on the 6th day p.i.) | > 80% | good to very good action | better than the compounds (C) and (D) | – | –
– | – | – | – | – | N#CC1(C(O)(Cn2cncn2)c2ccc(OC(F)(F)F)cc2)CC1 (centres unmarked) [I-9] | +++++ (very good action = 90% surviving on the 6th day p.i.) | > 80% | good to very good action | better than the compounds (C) and (D) | – | –
– | – | – | – | – | N#CC1(C(O)(Cn2cncn2)c2ccc(C(F)(F)F)cc2Cl)CC1 (centres unmarked) [I-11] | +++++ (very good action = 90% surviving on the 6th day p.i.) | > 80% | good to very good action | better than the compounds (C) and (D) | – | –
– | – | – | – | – | N#CC1(C(O)(Cn2cncn2)c2ccccc2Cl)CC1 (centres unmarked) [I-13] | ++++ (good action = 80% surviving on the 6th day p.i.) | > 80% | good to very good action | better than the compounds (C) and (D) | – | –
16 µg/mL (≈ 52.2 µM) | 2 µg/mL (≈ 6.52 µM) | < 1 µg/mL | 4 µg/mL (≈ 13 µM) | 4 µg/mL (≈ 13 µM) | N#CC1(C(O)(Cn2cncn2)c2ccc(Cl)cc2F)CC1 (centres unmarked) [I-14] | +++++ (very good action = 90% surviving on the 6th day p.i.) | > 80% | good to very good action | better than the compounds (C) and (D) | – | better activity
– | – | – | – | – | N#CC1(C(O)(Cn2cncn2)c2c(F)cccc2F)CC1 (centres unmarked) [I-15] | +++++ (very good action = 90% surviving on the 6th day p.i.) | > 80% | good to very good action | better than the compounds (C) and (D) | – | –
32 µg/mL (≈ 99 µM) | 16 µg/mL (≈ 49.5 µM) | < 1 µg/mL | 2 µg/mL (≈ 6.19 µM) | < 1 µg/mL | N#CC1(C(O)(Cn2cncn2)c2ccc(Cl)cc2Cl)CC1 (centres unmarked) [I-16] | +++++ (very good action = 90% surviving on the 6th day p.i.) | > 80% | good to very good action | better than the compounds (C) and (D) | – | better activity
